≈ marks a conversion by molar mass, not a printed value. Where two headings read alike, the source gives them in different places. Blank lines part the entries; values can stand above or below the compound they belong to.
Legend:
[1] = test system: Mutans Streptococci Strains; experiment: MIC and MBC, broth dilution, all strains stated together; assay type: cell-based, S. mutans (GS-5 and UA159) and S. sobrinus 6715
Description: (§1) The minimum inhibitory concentration (MIC) and minimum bactericidal concentration (MBC) were determined for each test compound according to the National Committee for Clinical Laboratory Standards guidelines (Tentative standard M26-T, 1992; NCCLS Publication No. M7-A5, 2000) and Koo et al. (2000b). The broth microdilution and macrodilution methods (in TSB) were used for the antibacterial tests. The starting inoculum was 5×10^5 CFU/ml and the concentrations of test compounds ranged from 15.6 to 500 μM (two-fold dilutions). The MICs and MBCs were determined in quadruplicate in at least 3 different experiments.

[2] = test system: Streptococcus mutans UA 159; experiment: MIC and MBC, broth dilution; assay type: cell-based
Description: as §1

[3] = test system: Streptococcus sobrinus 6715; experiment: MIC and MBC, broth dilution; assay type: cell-based; settings: Streptococcus sobrinus 6715
Description: as §1

[4] = test system: Streptococcus mutans GS-5; experiment: MIC and MBC, broth dilution; assay type: cell-based
Description: as §1

GTF C [5] = molecular target: T1, GTF C (Streptococcus mutans serotype c, UniProt P13470); experiment: GTF activity in solution, GTF C; assay type: biochemical; settings: read-out: GTF C sol. % of Inhib.
T1 construct: The supernatant was carefully collected as the source of GTF C; made in house; host or cells: Streptococcus mutans WHB 410 (endogenous gtfC; urea/Triton extract of washed cells, hydroxyapatite chromatography)
T1 sequence (P13470 35-1455): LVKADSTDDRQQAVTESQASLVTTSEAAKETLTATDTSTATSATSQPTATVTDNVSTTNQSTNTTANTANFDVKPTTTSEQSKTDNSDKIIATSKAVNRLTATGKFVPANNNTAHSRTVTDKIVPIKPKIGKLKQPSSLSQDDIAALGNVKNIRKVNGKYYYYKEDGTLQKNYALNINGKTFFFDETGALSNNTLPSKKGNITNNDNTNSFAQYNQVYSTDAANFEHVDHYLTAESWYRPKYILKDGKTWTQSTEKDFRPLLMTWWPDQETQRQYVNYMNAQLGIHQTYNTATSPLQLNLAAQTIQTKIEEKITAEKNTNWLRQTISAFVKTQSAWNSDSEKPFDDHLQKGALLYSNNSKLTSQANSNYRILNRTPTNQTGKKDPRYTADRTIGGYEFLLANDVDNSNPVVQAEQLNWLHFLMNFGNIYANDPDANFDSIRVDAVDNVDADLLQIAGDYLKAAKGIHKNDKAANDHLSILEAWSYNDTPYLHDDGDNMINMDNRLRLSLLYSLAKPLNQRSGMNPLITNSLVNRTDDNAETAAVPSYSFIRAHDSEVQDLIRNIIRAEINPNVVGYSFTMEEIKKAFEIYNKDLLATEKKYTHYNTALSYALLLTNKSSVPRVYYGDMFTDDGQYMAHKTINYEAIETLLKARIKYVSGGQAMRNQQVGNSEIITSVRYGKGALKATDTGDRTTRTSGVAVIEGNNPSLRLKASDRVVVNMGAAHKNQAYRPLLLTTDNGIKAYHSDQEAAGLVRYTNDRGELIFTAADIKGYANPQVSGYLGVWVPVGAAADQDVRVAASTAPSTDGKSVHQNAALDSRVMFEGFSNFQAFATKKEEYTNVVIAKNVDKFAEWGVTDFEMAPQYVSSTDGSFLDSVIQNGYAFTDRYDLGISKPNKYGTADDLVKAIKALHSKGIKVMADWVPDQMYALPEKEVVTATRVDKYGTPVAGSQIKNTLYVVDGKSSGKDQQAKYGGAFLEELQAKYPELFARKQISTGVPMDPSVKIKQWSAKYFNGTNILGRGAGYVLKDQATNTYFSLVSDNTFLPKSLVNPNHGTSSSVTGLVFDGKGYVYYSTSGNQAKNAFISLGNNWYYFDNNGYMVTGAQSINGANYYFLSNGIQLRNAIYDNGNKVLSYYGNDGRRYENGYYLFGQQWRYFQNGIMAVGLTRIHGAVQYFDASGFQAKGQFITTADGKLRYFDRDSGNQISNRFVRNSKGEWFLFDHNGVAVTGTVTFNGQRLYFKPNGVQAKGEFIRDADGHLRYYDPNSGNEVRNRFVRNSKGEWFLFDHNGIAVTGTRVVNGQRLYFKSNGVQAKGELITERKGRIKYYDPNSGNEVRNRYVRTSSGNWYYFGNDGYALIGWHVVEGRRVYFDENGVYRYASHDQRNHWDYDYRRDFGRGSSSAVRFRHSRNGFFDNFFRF
Description: (§2) Glucosyltransferase activity was measured by the incorporation of [^14C-glucose] from labeled sucrose (NEN Research Products, Boston, Mass.) into glucans (Germaine et al., 1974; Venkitaraman et al., 1995). The GTF enzyme added to each sample for all assays was equivalent to the amount required to incorporate 1.0-1.5 μmol of glucose over the four hours reaction (1.0-1.5 units).
(§3) For solution assays, purified GTF B, C, D and Ss were mixed with a two-fold dilution series of the test compounds (concentration ranging from 125 to 500 μM) and incubated with [^14C-glucose]-sucrose substrate (0.2 μCi/ml) (200.0 mmol/l sucrose, 40 μmol/l dextran 9000, 0.02% sodium azide in adsorption buffer—50 mM KCl, 1.0 mM KPO4, 1.0 mM CaCl2, 0.1 mM MgCl2−pH=6.5) to reach a final concentration of 100 mmol/l sucrose (200 μl final volume). For the control, the same reaction was carried out, where ethanol:DMSO (final concentration of 7.5% and 1.25%, v/v) or ethanol (final concentration of 5%, v/v) replaced the test agent solutions. The samples were incubated 37° C. with rocking for 4 h. After incubation, ice-cold ethanol (1.0 ml) was added and the samples were stored for 18 h, 4° C. for precipitation of glucans. Radiolabeled glucan was determined by scintillation counting (Germaine et al., 1974; Venkitaraman et al., 1995).

GTF C [6] = molecular target: T1, GTF C; experiment: GTF activity adsorbed onto sHA surface, GTF C; assay type: biochemical; settings: read-out: GTF C surf. % of Inhib.
Description: as §2
(§4) For surface assays, the GTFs were adsorbed to hydroxyapatite beads coated with clarified whole saliva (free of GTF activity), as detailed elsewhere (Koo et al., 2000c; Schilling and Bowen, 1988, Venkitaraman et al., 1995). The saliva-coated hydroxyapatite (sHA) beads were exposed to sufficient enzyme to saturate the surface as determined experimentally. Following the adsorption of the enzyme, the beads were washed 3 times with buffer to remove the loosely bound material and exposed to 300 μl of the two-fold dilution series of test compounds (or control) for 30 min. at the same concentrations described above. The beads were washed and exposed to 300 μl [^14C-glucose]-sucrose substrate (100.0 mmol/l sucrose, final concentration). The radiolabeled glucan formed was collected and quantified by scintillation counting (Germaine et al., 1974; Venkitaraman et al., 1995). All the solution and surface assays were done in quadruplicate in at least 3 different experiments.

GTF Ss [7] = molecular target: T2, GTF Ss (Streptococcus sanguinis, UniProt A3CLJ9); experiment: GTF activity in solution, GTF Ss; assay type: biochemical, S. sanguinis; settings: read-out: GTF Ss sol. % of Inhib.
Description: as §2, §3

GTF D [8] = molecular target: T3, GTF D (Streptococcus mutans serotype c, UniProt P49331); experiment: GTF activity adsorbed onto sHA surface, GTF D; assay type: biochemical; settings: read-out: GTF D surf. % of Inhib.
T3 construct: made in house; host or cells: Streptococcus milleri NH5 (culture supernatant)
T3 sequence (P49331 whole entry): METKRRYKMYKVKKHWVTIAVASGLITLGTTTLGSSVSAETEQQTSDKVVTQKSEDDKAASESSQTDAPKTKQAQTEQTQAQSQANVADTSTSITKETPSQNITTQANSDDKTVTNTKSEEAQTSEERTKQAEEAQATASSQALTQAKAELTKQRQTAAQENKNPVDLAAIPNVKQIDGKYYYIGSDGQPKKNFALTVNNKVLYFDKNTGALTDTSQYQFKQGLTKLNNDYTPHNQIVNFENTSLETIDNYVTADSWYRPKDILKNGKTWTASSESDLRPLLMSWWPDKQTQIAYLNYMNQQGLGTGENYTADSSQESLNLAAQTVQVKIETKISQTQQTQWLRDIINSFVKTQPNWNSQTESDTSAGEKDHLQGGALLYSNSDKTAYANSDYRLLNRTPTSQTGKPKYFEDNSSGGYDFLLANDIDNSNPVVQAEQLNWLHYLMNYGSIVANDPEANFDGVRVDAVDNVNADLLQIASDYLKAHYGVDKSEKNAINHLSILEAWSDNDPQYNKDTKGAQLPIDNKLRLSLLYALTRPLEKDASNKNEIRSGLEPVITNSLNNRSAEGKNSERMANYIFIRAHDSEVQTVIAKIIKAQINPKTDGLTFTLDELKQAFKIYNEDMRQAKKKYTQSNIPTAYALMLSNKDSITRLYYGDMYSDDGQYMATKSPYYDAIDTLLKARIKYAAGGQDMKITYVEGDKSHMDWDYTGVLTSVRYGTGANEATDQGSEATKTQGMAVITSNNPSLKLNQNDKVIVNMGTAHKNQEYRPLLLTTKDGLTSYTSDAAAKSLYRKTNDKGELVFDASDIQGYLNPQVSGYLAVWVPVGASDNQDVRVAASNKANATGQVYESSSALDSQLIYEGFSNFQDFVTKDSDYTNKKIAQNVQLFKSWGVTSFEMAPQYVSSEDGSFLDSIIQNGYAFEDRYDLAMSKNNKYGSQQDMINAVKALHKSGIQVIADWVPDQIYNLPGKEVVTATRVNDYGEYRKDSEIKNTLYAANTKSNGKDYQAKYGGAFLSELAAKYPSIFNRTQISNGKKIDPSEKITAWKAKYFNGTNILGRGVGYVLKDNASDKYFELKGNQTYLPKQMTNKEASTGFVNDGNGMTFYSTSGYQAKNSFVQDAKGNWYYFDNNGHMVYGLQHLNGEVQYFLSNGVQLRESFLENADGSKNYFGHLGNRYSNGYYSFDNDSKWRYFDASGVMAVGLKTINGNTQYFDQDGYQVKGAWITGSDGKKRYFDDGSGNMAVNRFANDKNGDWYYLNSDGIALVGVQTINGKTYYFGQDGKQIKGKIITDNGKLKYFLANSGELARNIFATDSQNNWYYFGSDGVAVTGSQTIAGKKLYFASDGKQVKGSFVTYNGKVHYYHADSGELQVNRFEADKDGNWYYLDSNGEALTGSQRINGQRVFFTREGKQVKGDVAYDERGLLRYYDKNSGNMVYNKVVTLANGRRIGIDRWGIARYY
Description: as §2, §4

GTF B [9] = molecular target: T4, GTF B (Streptococcus mutans serotype c, UniProt P08987); experiment: GTF activity adsorbed onto saliva-coated hydroxyapatite (sHA) surface, GTF B; assay type: biochemical; settings: read-out: GTF B surf. % of Inhib.
T4 construct: made in house; host or cells: Streptococcus milleri KSB8 (culture supernatant)
T4 sequence (P08987 35-1476): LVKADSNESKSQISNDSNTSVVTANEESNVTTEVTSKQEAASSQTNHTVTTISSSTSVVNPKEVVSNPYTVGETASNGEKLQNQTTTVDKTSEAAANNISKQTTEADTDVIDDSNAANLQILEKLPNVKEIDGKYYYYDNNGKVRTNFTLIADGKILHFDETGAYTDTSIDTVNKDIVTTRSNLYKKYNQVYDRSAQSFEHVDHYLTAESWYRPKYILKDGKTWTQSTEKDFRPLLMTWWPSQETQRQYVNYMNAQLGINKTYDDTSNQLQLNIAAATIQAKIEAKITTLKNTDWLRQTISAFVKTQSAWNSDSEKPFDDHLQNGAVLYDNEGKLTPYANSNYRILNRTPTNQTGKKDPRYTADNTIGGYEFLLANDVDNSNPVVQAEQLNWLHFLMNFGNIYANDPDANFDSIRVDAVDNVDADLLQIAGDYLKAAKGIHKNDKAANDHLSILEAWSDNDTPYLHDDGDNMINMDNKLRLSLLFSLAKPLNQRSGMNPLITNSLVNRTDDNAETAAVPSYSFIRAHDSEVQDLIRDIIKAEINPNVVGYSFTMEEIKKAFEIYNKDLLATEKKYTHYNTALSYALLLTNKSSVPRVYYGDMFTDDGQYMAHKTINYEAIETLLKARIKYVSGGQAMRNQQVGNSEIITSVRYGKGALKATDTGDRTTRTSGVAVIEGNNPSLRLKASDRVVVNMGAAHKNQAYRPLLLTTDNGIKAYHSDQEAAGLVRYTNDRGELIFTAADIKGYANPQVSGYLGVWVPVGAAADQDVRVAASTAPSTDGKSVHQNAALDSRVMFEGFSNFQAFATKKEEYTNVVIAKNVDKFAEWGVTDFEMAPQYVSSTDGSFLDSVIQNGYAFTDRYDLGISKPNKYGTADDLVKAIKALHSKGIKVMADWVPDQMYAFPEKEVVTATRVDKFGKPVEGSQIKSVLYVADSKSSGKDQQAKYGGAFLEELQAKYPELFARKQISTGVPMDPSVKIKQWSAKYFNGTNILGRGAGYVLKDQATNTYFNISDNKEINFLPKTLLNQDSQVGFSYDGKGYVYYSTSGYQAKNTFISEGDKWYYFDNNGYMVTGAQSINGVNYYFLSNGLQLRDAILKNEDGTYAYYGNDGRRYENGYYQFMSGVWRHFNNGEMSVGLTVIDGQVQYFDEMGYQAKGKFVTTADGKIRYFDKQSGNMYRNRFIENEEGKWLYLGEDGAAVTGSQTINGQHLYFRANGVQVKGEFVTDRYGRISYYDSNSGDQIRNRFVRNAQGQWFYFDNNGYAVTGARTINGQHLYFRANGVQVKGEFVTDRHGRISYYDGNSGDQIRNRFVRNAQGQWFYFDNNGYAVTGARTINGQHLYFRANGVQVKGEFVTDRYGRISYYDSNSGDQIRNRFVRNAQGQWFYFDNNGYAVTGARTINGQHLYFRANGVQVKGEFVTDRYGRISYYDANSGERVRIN
Description: as §2, §4

GTF Ss [10] = molecular target: T2, GTF Ss; experiment: GTF activity adsorbed onto sHA surface, GTF Ss; assay type: biochemical, S. sanguinis; settings: read-out: GTF Ss surf. % of Inhib.
Description: as §2, §4

GTF B [11] = molecular target: T4, GTF B; experiment: GTF activity in solution, GTF B; assay type: biochemical; settings: read-out: GTF B sol. % of Inhib.
Description: as §2, §3

GTF D [12] = molecular target: T3, GTF D; experiment: GTF activity in solution, GTF D; assay type: biochemical; settings: read-out: GTF D sol. % of Inhib.
Description: as §2, §3

[13] = Streptococcus mutans, all strains tested (S. mutans GS-5, UA159, S. sobrinus 6715), read-out: MIC

Compound: O=c1cc(-c2ccccc2)oc2cc(O)c(O)c(O)c12 [Baicalein]
MIC ([1]; all strains tested (S. mutans GS-5, UA159, S. sobrinus 6715), read-out: MIC): 500 µM (≈ 135 µg/mL) | MBC [2]: >500 µM | MIC [2]: 500 µM (≈ 135 µg/mL) | MBC [3]: >500 µM | MIC [3]: 500 µM (≈ 135 µg/mL) | MBC [4]: >500 µM | MIC [4]: 500 µM (≈ 135 µg/mL)

Compound: O=C(O)c1ccccc1 [Benzoic acid]
MIC ([1]; Streptococcus mutans): > 500 µM

MIC [1, 13]: > 500 µM
Compound: O=C(O)/C=C/c1ccc(O)c(O)c1 [Caffeic acid]

MIC [1, 13]: > 500 µM
Compound: COc1cc(/C=C/C(=O)O)ccc1O [Ferulic acid]

Compound: O=c1c(O)c(-c2ccc(O)cc2)oc2cc(O)cc(O)c12 [Kaempferol]
inhibition at 125 µM (GTF C [5]): 41.9% | inhibition at 250 µM (GTF C [5]): 82.2% | inhibition at 500 µM (GTF C [5]): 90.2% | inhibition at 125 µM (GTF C [6]): 24.2% | inhibition at 250 µM (GTF C [6]): 25.8% | inhibition at 500 µM (GTF C [6]): 35.2% | inhibition at 125 µM (GTF Ss [7]): 37.6% | inhibition at 250 µM (GTF Ss [7]): 43.1% | inhibition at 500 µM (GTF Ss [7]): 88.9% | inhibition at 125 µM (GTF D [8]): 20.4% | inhibition at 250 µM (GTF D [8]): 23.5% | inhibition at 500 µM (GTF D [8]): 28.5% | MIC ([1]; Streptococcus mutans): > 500 µM | inhibition at 125 µM (GTF B [9]): 9.9% | inhibition at 250 µM (GTF B [9]): 27.8% | inhibition at 500 µM (GTF B [9]): 40.2% | inhibition at 125 µM (GTF Ss [10]): 9.7% | inhibition at 250 µM (GTF Ss [10]): 8.8% | inhibition at 500 µM (GTF Ss [10]): 19.2% | inhibition at 125 µM (GTF B [11]): 32.4% | inhibition at 250 µM (GTF B [11]): 80.6% | inhibition at 500 µM (GTF B [11]): 90.4% | inhibition at 125 µM (GTF D [12]): 39.1% | inhibition at 250 µM (GTF D [12]): 76.7% | inhibition at 500 µM (GTF D [12]): 86.7%

Compound: O=c1cc(-c2ccc(O)c(O)c2)oc2cc(O)cc(O)c12 [Luteolin]
MIC [1, 13]: > 500 µM

Source: patent US20040057908A1, “Oral compositions and use thereof” (priority 2003, published 2004)
